# Reference: patent publication US20070265201A1, “INHIBITORS OF IN[…] TRA[…] FROM HCMV PROTEIN IE2” (priority 2005, published 2007)
# Entries after “also recorded” stand apart in the source; their conditions may differ. Ends that are not written are not given here.
# What was measured:
# IL-1β promoter = IL-1β promoter (HT) luciferase gene reporter assay, transient transfection of HeLa-S3 cells with Spi-1 and C/EBPβ expression vectors; assay type: cell-based, human; settings: for inhibition of cooperative transactivation of the IL-1β promoter: HT reporter with Spi-1 and C/EBP, absence of full-length IE2, titrated fragment vector, FIG. 2A
# Excerpt: FIGS. 1A-1D depict cooperative transactivation of the IL-1B promoter by Spi-1, C/EBPβ and IE2. FIG. 1A is a schematic of the IL-1B promoter showing two composite Spi-1-C/EBPβ binding sites in proximity to the transcription start site. The full-length promoter (HT) was spliced into a vector containing the gene reporter firefly luciferase and used in transient transfection assays in HeLa-S3 cells. FIG. 1B depicts dose-response of HT reporter to titrated Spi-1 expression vector and a fixed amount of cotransfected C/EBPβ expression vector. FIG. 1C depicts dose-response of HT reporter to titrated C/EBPβ expression vector and a fixed amount of Spi-1 expression vector. FIG. 1D depicts functional cooperativity with IE2. The HT reporter was contransfected with titrated Spi-1 expression vector (open bars) or fixed amount of C/EBPβ expression vector (checkerboard bars), or both C/EBPβ and IE2 expression vectors (hatched bars).
# The data shown here are pooled from three independent experiments. […] The indicated transfection groups were con-transfected with titrated amounts of IE2 291-364 or 291-343 expression vectors. […] The experiment described by FIG. 2B is similar to that described by FIG. 2A except that wild type IE2 was also added to the indicated transfection groups. These are pooled data from three independent experiments.
# • Cell Culture. HeLa cells (Strain S3) were obtained by ATCC and cultured per their recommendations. Briefly, the cells were grown in Dulbecco modified Eagle medium (DMEM) containing 10% FBS and 0.5% penicillin-streptomycin. Every three days cells were split 1:10 using Trypsin (0.25%) EDTA (0.1%) (Cellgro) to detach the cells. • Reporter Constructs and Expression Vectors. The human IL1B promoter regions (−131+12 and −59/+12 and its mutants (FIG. 1A) were generated by polymerase chain reaction (PCR) and inserted into pGL3-Basic vector (Promega) at Mlu I and BgI II or Hind III sites to construct promoter-luciferase reporter plasmids. The HCMV IE expression vectors pEQ273 and pEQ326 contain the genomic HCMV IE DNA inserted into pGEM1 vector. The plasmids expressing full-length NFIL6 and a truncated version with an internal deletion between the two Spl I restriction sites were constructed by inserting the NFIL6 cDNAs into expression vectors pcDNA3.1 or pcDNA1 (Invitrogen) (Tsukada, J., K. Saito, et al. (1994) Mol Cell Biol 14(11): 7285-97). […] Twenty-four or forty-eight hours after transfection, the activities of luciferase and β-galactosidae activity were determined (using reagents from Promega) to measure promoter activity and allow normalization of luciferase activity in each experiment, respectively. […]
# IE2 = target: T1, IE2 (Human cytomegalovirus, UniProt P19893); assay: GST fusion pull-down assay with radiolabeled IE2 probe; assay type: binding; settings: autoradiography, FIG. 5
# T1 construct: made in house; host or cells: in vitro translation, rabbit reticulocyte lysate (TNT T7 Quick Coupled, Promega), 35S-methionine label
# Description: (§1) Interaction of the indicated probes is retained to the control peptides IE2 291-343 and IE2 291-364.
# (§2) • Cell Culture. HeLa cells (Strain S3) were obtained by ATCC and cultured per their recommendations. Briefly, the cells were grown in Dulbecco modified Eagle medium (DMEM) containing 10% FBS and 0.5% penicillin-streptomycin. Every three days cells were split 1:10 using Trypsin (0.25%) EDTA (0.1%) (Cellgro) to detach the cells. • Reporter Constructs and Expression Vectors. The human IL1B promoter regions (−131+12 and −59/+12 and its mutants (FIG. 1A) were generated by polymerase chain reaction (PCR) and inserted into pGL3-Basic vector (Promega) at Mlu I and BgI II or Hind III sites to construct promoter-luciferase reporter plasmids. The HCMV IE expression vectors pEQ273 and pEQ326 contain the genomic HCMV IE DNA inserted into pGEM1 vector. The plasmids expressing full-length NFIL6 and a truncated version with an internal deletion between the two Spl I restriction sites were constructed by inserting the NFIL6 cDNAs into expression vectors pcDNA3.1 or pcDNA1 (Invitrogen) (Tsukada, J., K. Saito, et al. (1994) Mol Cell Biol 14(11): 7285-97). The expression vector containing the bZIP region of NFIL6 was constructed by inserting a PCR-amplified fragment of NFIL6 encoding amino acids 269-345 into pcDNA3.1 (Yang, Z., N. Wara-Aswapati, et al. (2000) J Biol Chem 275(28): 21272-7). • Transfections and Reporter Gene Assays. HeLa (S3) cells were transfected with expression vectors and luciferase reporter plasmids using Effectene reagents (Qiagen Inc.). Cells were seeded into 24-well plates 24 hours before transfection. […] Expression from these vectors was confirmed by western blotting. Twenty-four or forty-eight hours after transfection, the activities of luciferase and β-galactosidae activity were determined (using reagents from Promega) to measure promoter activity and allow normalization of luciferase activity in each experiment, respectively. […] Gels were stained with SimplyBlue Safestain (Invitrogen) for protein determination and analyzed for binding using autoradiography. […]
# GFP expression vector = assay: Specificity control: expression of control GFP vector by flow cytometry in HeLa-S3 cells; assay type: cell-based; settings: HeLa-S3, cotransfection, 24 hours, FIG. 4D
# Description: (§3) FIGS. 4A-4D. […] FIG. 4D is another specificity control showing that a control GFP expression vector was not affected by either IE2 291-343 or IE2 291-364. HeLa-S3 cells were transfected with both a GFP expression vector and cotransfected with either E2 291-343 or IE 291-364 expression vectors and GFP expression analyzed 24 hours later by a fluorescence activated cell sorter.
# (§4) Because the IE2 291-364 region was previously mapped as one of three TBP binding sites on IE2, it was possible that the inhibitory function was due to interaction with TBP. To exclude this possibility, the expression of two other genes that contain TATA boxes in their promoters were investigated. First, an observed the expression of C/EBPβ from the expression vector by western blot (FIG. 4C) was conducted. […] Second, His-tagged inhibitors were cotransfected with ev GFP and the geometric mean brightness of transfected cells measured by flow cytometry (FIG. 4D). […] It is believed that the basis for the interaction is localized to residues 315-328 of the IE2 molecule because a variant of IE2 291-364 missing the 315-328 region (delA) lacks binding to Spi-1 ETS domain in a GST fusion pull-down assay (FIG. 5).
# Spi-1 ETS domain = target: T2, Spi-1 ETS domain (Homo sapiens, UniProt P17947); assay: GST fusion pull-down assay with radiolabeled Spi-1 ETS domain probe; assay type: binding; settings: autoradiography, FIG. 5
# T2 construct: made in house; host or cells: in vitro translation, rabbit reticulocyte lysate (TNT T7 Quick Coupled, Promega), 35S-methionine label
# Description: as §1, §2
# C/EBPβ bZIP domain = target: T3, C/EBPβ bZIP domain (Homo sapiens, UniProt P17676); assay: GST fusion pull-down assay with radiolabeled C/EBPβ bZIP domain probe; assay type: binding; settings: autoradiography, FIG. 5
# T3 construct: PCR-amplified fragment of NFIL6 encoding amino acids 269-345 into pcDNA3.1; made in house; host or cells: in vitro translation, rabbit reticulocyte lysate (TNT T7 Quick Coupled, Promega), 35S-methionine label
# Description: as §1, §2
# IL-1β promoter reporter = assay: Full-length IL-1β regulatory region luciferase reporter in LPS-stimulated RAW264.7 monocytic cells; assay type: cell-based
# Excerpt: FIG. 3 depicts that IE2 291-364 fragment inhibits full-length IL-1β reporter in the monocytic cell line RAW264.7. A luciferase gene reporter was made by splicing the native IL-1β upstream fragment (XT), which contains the enhancer through promoter sequences, upstream of the luciferase gene. This was cotransfected (in titrated doses) with pCDNA 3.1/V5-His empty vector (control) or pCDNA 3.1/V5-His IE2 291-364 by calcium phosphate precipitation into RAW 264.7 cells. To activate the reporter, cells were stimulated with LPS.
# FIG. 6 depicts increasing amounts of vector expressing either IE2 291-364Δ315-328 or IE2 291-364 transfected into RAW cells with full length IL-1β regulatory protein as a luciferase reporter. After transient transfection by CaPO4, RAW cell lysates were used for measurement by luminometry and results normalized to β-galactosidase activity introduced by a co-transfected β-galactosidase expression vector to control for transfection efficiency. Values for IE2 291-364Δ315-328 are reported as percentages of relative luciferase activity compared to the wild-type fragment 315-264, as shown.
# To further verify the effect of IE2 291-364, a test was conducted in the RAW 264.7 cell line. […] When the RAW 264.7 cell line was treated with the bacterial cell wall product LPS, it produced IL-1β similar to what normal monocytes would do. The IE2-291-364 peptide inhibited IL-1β promoter reporter by about 50% in this system (FIG. 3).
# In order to more rigorously test the inhibitory capabilities of the IE2 peptides on IL1B gene expression, a complete monocyte-specific 3.8 kbp regulatory region of the IL1B gene containing both the LPS-responsive enhancer and the cell-type specific Spi-1-dependent promoter (Shirakawa, F., K. Saito, et al. (1993). Mol Cell Biol 13(3): 1332-44) was transfected as a luciferase reporter into LPS-treated RAW264.7 monocyte cells.
# C/EBPβ = assay: Specificity control: C/EBPβ expression by western blot of transfected HeLa-S3 lysates; assay type: cell-based; settings: HeLa-S3 cell lysates, FIG. 4C
# Description: as §3, §4
# T1 sequence (P19893 whole entry, the tested form may be a part): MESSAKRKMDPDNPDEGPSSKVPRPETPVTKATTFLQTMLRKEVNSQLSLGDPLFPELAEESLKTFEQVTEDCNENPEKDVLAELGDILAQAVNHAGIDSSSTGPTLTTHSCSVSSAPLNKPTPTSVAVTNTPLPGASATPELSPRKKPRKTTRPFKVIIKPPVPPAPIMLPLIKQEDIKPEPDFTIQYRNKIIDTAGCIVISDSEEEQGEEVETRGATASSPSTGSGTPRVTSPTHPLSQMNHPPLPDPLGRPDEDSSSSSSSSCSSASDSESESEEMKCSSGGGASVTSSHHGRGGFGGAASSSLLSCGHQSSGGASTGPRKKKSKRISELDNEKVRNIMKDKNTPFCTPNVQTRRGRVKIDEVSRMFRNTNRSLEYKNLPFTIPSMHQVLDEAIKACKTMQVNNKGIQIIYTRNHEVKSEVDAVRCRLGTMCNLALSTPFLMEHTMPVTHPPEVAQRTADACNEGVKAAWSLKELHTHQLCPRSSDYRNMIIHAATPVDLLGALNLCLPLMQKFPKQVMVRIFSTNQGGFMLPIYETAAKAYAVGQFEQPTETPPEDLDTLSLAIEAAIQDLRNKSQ
# T3 sequence (P17676 269-345): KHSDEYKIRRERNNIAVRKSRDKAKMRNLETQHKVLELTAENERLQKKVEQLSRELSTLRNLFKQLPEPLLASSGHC
substance,measurement,setting,value
IE2 291-343: hCMV IE2 protein amino acid residues 291-343,inhibition of cooperative transactivation of the IL-1β promoter,IL-1β promoter,inhibited
same,interaction with IE2 probe,IE2,retained
same,effect on GFP expression from control GFP vector,GFP expression vector,not affected
same,interaction with Spi-1 ETS domain probe,Spi-1 ETS domain,retained
same,interaction with C/EBPβ bZIP domain probe,C/EBPβ bZIP domain,retained
delA (SSHHGRGGFGGAASSSLLSCGHQSRISELDNEKVRNIMKDKNTPFCTPNVQTRRGRVKID; not fully specified; cysteine pairing not given here) [reference compound],interaction with IE2 probe,IE2,loss of interaction
same,interaction with Spi-1 ETS domain probe,Spi-1 ETS domain,lacks binding; also recorded: loss of interaction
same,interaction with C/EBPβ bZIP domain probe,C/EBPβ bZIP domain,loss of interaction
GFP-IE2 291-343 (SSHHGRGGFGGAASSSLLSCGHQSSGGASTGPRKKKSKRISELDNEKVRNIMK; also: GFP fusion),inhibition of IL-1β promoter (HT reporter) activity by GFP fusion product,"IL-1β promoter; Spi-1 and C/EBPβ transactivation, GFP-expressing cells purified by FACS, FIG. 4B",inhibition of IL-1β promoter activity
"full length wild-type IE2: CMV encoded transactivator Immediate Early 2 protein, full length",increase of IL-1β promoter reporter activity,"IL-1β promoter; full length wild-type IE2 added to Spi-1 and C/EBPβ transfection, HeLa-S3, FIG. 1D",4-10 fold
"IE2 291-364: hCMV IE2 protein amino acid residues 291-364, expressed from vector (His tag or GST fusion)",inhibition of cooperative transactivation of the IL-1β promoter,IL-1β promoter,inhibited
same,dose dependence of inhibition of 3.8 kbp IL1B regulatory region reporter activity,"IL-1β promoter reporter; LPS-treated RAW264.7, His-tagged expression vector, FIG. 6",dose-dependent inhibition
same,inhibition of full-length IL-1β reporter (XT),"IL-1β promoter reporter; RAW264.7, LPS stimulated, cotransfected pCDNA 3.1/V5-His IE2 291-364, FIG. 3",inhibits
same,inhibition of IL-1β promoter reporter,"IL-1β promoter reporter; RAW 264.7 cells treated with LPS, FIG. 3",about 50%
same,effect on expression of C/EBPβ protein (western blot),C/EBPβ,does not inhibit
same,interaction with IE2 probe,IE2,retained
same,effect on GFP expression from control GFP vector,GFP expression vector,not affected
same,interaction with Spi-1 ETS domain probe,Spi-1 ETS domain,retained
same,interaction with C/EBPβ bZIP domain probe,C/EBPβ bZIP domain,retained
